In paper PMC6539903 (Molecules, 2019):

Key:
[1] = MTT cytotoxicity assay, non-cancer colon cells; format: cell-based; conditions: human, NCM460 colonic epithelial cells (non-cancer cell line), n = 3, non-cancer cell line, read-out: CC50 ± SD NUM460
Procedure: Besides, the MTT assay was performed on a non-cancer line NCM460 to assess the cytotoxicity of the test compound to normal colon cells.
(§1) MCF-7 (human breast cell line), HeLa (human cervical cell line), A549 (human lung cell line), HepG2 (human liver cell line), SW620 (human colorectal cell line) and a non-cancer cell line, NCM460 (Human colonic epithelial cells) were preserved at the State Key Laboratory of Pharmaceutical Biotechnology, Nanjing University (Nanjing, China).
(§2) The antiproliferative activity of the synthetic compounds against the SW620, MCF-7, HeLa, A549, HepG2, and NUM460 cell lines was evaluated by a colorimetric assay based on a modified standard (MTT). […] Thereafter, MTT (5 mg/mL in PBS) was added to each well and incubated for 4 h. 150 μL of DMSO was added to each well and shaken with a shaker. The absorbance (OD 570 nm) was read at 630 nm on an ELISA reader (ELx800, BioTek, montpelier, VT, USA). IC50 values for the compounds were calculated by comparison to DMSO treated control wells. Three replicate wells were used for each drug concentration. Each assay was performed three times.

[2] = system: HeLa; test: MTT antiproliferation assay, HeLa; format: cell-based; conditions: Homo sapiens, 48 h, n = 3, read-out: IC50 ± SD HeLa
Procedure: as §1, §2

[3] = system: SW620 cells; test: MTT antiproliferation assay, SW620; format: cell-based; conditions: Homo sapiens, SW-620, 48 h, n = 3, read-out: IC50 ± SD SW620
Procedure: as §1, §2

[4] = target: T1, COX-2 (Homo sapiens, UniProt P35354); test: COX-2 inhibition assay (COX-2 ELISA kit); format: biochemical; conditions: for Selectivity Index (SI) (COX-1 IC50/COX-2 IC50): in vitro COX-2 selectivity index; for IC50: mean of four determinations, read-out: IC50 ± SD COX-2
T1 construct: purchased Cayman Chemical 701180
T1 sequence (P35354 18-604): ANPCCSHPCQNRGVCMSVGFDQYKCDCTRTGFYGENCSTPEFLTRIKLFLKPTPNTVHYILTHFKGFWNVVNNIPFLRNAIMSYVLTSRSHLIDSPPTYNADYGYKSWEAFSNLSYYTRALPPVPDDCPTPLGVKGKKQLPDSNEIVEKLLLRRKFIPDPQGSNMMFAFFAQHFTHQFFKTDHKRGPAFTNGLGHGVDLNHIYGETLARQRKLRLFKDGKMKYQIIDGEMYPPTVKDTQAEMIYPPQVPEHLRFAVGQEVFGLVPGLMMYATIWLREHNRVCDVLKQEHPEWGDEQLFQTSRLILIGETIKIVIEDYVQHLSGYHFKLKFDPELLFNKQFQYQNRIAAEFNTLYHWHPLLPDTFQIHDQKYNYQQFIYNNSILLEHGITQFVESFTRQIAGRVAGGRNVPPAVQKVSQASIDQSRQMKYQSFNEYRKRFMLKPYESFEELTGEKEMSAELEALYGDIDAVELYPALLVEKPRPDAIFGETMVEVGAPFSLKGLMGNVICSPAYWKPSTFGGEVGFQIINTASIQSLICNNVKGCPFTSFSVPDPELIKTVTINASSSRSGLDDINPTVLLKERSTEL
Procedure: (§3) 3-(4,5-Dimethylthiazol-2-yl)-2,5-diphenyltetrazolium (MTT) were purchased from Beyotime Institute of Biotechnology (Haimen, China). Annexcin V-FITC cell apoptosis assay kit (catalog No.BA11100) was purchased from BIO-BOX (Nanjing, China). Fibronectin (#F1056) and laminin (#L2020) were purchased from Sigma-Aldrich (St. Louis, MO, USA).
(§4) Then 1 M HCl was added to the reaction mixture to stop the reaction, and one-tenth of the volume of saturated stannous chloride (50 mg/mL) was added. The reaction mixture was incubated at room temperature for 5 min, and PGF2 and PGH2 were produced.

[5] = system: HepG2; test: MTT antiproliferation assay, HepG2; format: cell-based; conditions: Homo sapiens, 48 h, n = 3, read-out: IC50 ± SD HepG2
Procedure: as §1, §2

[6] = system: MCF-7; test: MTT antiproliferation assay, MCF-7; format: cell-based; conditions: Homo sapiens, MCF7, 48 h, n = 3, read-out: IC50 ± SD MCF-7
Procedure: as §1, §2

[7] = system: A549; test: MTT antiproliferation assay, A549; format: cell-based; conditions: Homo sapiens, 48 h, n = 3, read-out: IC50 ± SD A549
Procedure: as §1, §2

[8] = target: T2, COX-1 (Homo sapiens, UniProt P23219); test: COX-1 inhibition assay (COX-1 ELISA kit); format: biochemical; conditions: mean of four determinations; read-out: IC50 ± SD COX-1
T2 construct: purchased Cayman Chemical 701170
Procedure: as §3, §4

T2 sequence (P23219 24-599): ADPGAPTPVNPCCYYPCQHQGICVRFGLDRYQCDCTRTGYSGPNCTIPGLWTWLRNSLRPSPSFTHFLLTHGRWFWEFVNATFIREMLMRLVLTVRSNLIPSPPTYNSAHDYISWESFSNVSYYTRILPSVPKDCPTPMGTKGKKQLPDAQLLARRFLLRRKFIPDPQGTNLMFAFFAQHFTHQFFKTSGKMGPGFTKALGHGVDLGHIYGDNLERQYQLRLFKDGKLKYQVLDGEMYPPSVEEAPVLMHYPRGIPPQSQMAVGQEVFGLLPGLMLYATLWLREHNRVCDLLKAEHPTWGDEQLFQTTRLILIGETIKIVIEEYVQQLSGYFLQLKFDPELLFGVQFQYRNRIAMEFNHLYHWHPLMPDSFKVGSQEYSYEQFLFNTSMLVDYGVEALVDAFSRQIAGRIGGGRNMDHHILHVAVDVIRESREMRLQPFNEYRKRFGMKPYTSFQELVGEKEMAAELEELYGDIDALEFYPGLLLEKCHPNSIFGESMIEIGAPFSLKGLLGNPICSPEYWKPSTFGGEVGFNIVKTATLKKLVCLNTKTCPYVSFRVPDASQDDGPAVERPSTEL

IC50 [2]	IC50 [3]	Selectivity Index (SI) (COX-1 IC50/COX-2 IC50) [4]	IC50 [4]	IC50 [5]	IC50 [6]	IC50 [7]	IC50 [8]	melting point	SMILES	CC50 at 48 h [1]
6.32 ± 0.55 µM	3.38 ± 0.27 µM	>44.44	1.35 ± 0.08 µM	7.64 ± 0.57 µM	5.77 ± 0.39 µM	3.54 ± 0.19 µM	> 60 µM	212 to 214 °C	NS(=O)(=O)c1ccc(N2N=C(c3ccccc3)CC2c2ccc3c(c2)OCO3)cc1 (centres unmarked) [Compound 4a, 4-(5-(Benzo[d][1,3]dioxol-5-yl)-3-phenyl-4,5-dihydro-1H-pyrazol-1-yl)benzenesulfonamide]	88.6 ± 3.96 µM
9.37 ± 0.9 µM	5.07 ± 0.26 µM	10.45	2.02 ± 0.13 µM	13.7 ± 0.93 µM	8.31 ± 0.67 µM	6.93 ± 0.17 µM	21.11 ± 0.19 µM	182 to 184 °C	CCOc1ccc(C2=NN(c3ccc(S(N)(=O)=O)cc3)C(c3ccc4c(c3)OCO4)C2)cc1 (centres unmarked) [Compound 4c, 4-(5-(Benzo[d][1,3]dioxol-5-yl)-3-(4-ethoxyphenyl)-4,5-dihydro-1H-pyrazol-1-yl)benzenesulfonamide]	159 ± 11.4 µM
5.71 ± 0.47 µM	3.04 ± 0.17 µM	21.53	1.2 ± 0.05 µM	6.42 ± 0.25 µM	5.26 ± 0.42 µM	2.86 ± 0.06 µM	25.84 ± 0.21 µM	212 to 214 °C	NS(=O)(=O)c1ccc(N2N=C(c3ccc(I)cc3)CC2c2ccc3c(c2)OCO3)cc1 (centres unmarked) [Compound 4d, 4-(5-(Benzo[d][1,3]dioxol-5-yl)-3-(4-iodophenyl)-4,5-dihydro-1H-pyrazol-1-yl)benzenesulfonamide]	74.5 ± 5.23 µM
7.22 ± 0.65 µM	3.88 ± 0.36 µM	19.20	1.55 ± 0.06 µM	9.44 ± 0.74 µM	6.52 ± 0.46 µM	4.54 ± 0.18 µM	29.77 ± 0.23 µM	187 to 188 °C	Cc1cccc(C2=NN(c3ccc(S(N)(=O)=O)cc3)C(c3ccc4c(c3)OCO4)C2)c1 (centres unmarked) [Compound 4e, 4-(5-(Benzo[d][1,3]dioxol-5-yl)-3-(m-tolyl)-4,5-dihydro-1H-pyrazol-1-yl)benzenesulfonamide]	110 ± 7.71 µM
8.05 ± 0.77 µM	4.34 ± 0.33 µM	33.61	1.73 ± 0.11 µM	11.2 ± 1.03 µM	7.21 ± 0.62 µM	5.49 ± 0.44 µM	58.14 ± 0.47 µM	179 to 180 °C	Cc1ccc(C2=NN(c3ccc(S(N)(=O)=O)cc3)C(c3ccc4c(c3)OCO4)C2)cc1C (centres unmarked) [Compound 4f, 4-(5-(Benzo[d][1,3]dioxol-5-yl)-3-(3,4-dimethylphenyl)-4,5-dihydro-1H-pyrazol-1-yl)benzenesulfonamide]	129 ± 8.96 µM
14.6 ± 0.96 µM	7.99 ± 0.56 µM	>18.87	3.18 ± 0.26 µM	18.2 ± 1.15 µM	12.7 ± 0.89 µM	9.42 ± 0.74 µM	> 60 µM	219 to 221 °C	COc1cccc(C2=NN(c3ccc(S(N)(=O)=O)cc3)C(c3ccc4c(c3)OCO4)C2)c1 (centres unmarked) [Compound 4g, 4-(5-(Benzo[d][1,3]dioxol-5-yl)-3-(3-methoxyphenyl)-4,5-dihydro-1H-pyrazol-1-yl)benzenesulfonamide]	211 ± 18.2 µM
6.07 ± 0.41 µM	3.24 ± 0.18 µM	41.33	1.28 ± 0.07 µM	7.14 ± 0.66 µM	5.56 ± 0.38 µM	3.26 ± 0.29 µM	52.91 ± 0.39 µM	192 to 193 °C	NS(=O)(=O)c1ccc(N2N=C(c3cccc(F)c3)CC2c2ccc3c(c2)OCO3)cc1 (centres unmarked) [Compound 4h, 4-(5-(Benzo[d][1,3]dioxol-5-yl)-3-(3-fluorophenyl)-4,5-dihydro-1H-pyrazol-1-yl)benzenesulfonamide]	82.8 ± 7.59 µM
–	–	–	–	–	–	–	–	171 to 173 °C	NS(=O)(=O)c1ccc(N2N=C(c3cccc(Cl)c3Cl)CC2c2ccc3c(c2)OCCO3)cc1 (centres unmarked) [Compound 4x, 4-(3-(2,3-Dichlorophenyl)-5-(2,3-dihydrobenzo[b][1,4]dioxin-6-yl)-4,5-dihydro-1H-pyrazol-1-yl)benzenesulfonamide]	–
